Test results taken from patent US20240166635A1, “AMINOHETEROARYL KINASE INHIBITORS” (Anrui Biomedical Technology (Guangzhou) Co.,Ltd., priority 2020, published 2024).

Experiments:
Assay type in all cases: biochemical
CDK1/CyclinB = CDK1/CyclinB (Homo sapiens (Human), UniProt P06493); assay: CDK1/CyclinB kinase inhibitory activity (Caliper mobility shift); conditions: read-out: CDK1/Cyclin B1 IC50
CDK9/CyclinT1 = CDK9/CyclinT1 (Homo sapiens (Human), UniProt P50750); assay: CDK9/CyclinT1 kinase inhibitory activity (Caliper mobility shift); conditions: read-out: CDK9/Cyclin T1 IC50
CDK9/CyclinT1, sequence (P50750 whole entry): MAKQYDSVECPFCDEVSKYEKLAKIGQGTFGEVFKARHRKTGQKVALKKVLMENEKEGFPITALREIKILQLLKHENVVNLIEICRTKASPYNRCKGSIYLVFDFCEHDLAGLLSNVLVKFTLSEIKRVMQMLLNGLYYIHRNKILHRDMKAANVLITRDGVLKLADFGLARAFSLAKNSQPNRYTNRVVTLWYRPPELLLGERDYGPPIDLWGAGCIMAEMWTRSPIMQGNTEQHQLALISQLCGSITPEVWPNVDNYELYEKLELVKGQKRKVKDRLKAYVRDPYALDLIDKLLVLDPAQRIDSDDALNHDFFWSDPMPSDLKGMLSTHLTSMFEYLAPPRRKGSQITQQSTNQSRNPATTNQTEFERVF
CDK9/CyclinT1, sequence (O60563 whole entry partner): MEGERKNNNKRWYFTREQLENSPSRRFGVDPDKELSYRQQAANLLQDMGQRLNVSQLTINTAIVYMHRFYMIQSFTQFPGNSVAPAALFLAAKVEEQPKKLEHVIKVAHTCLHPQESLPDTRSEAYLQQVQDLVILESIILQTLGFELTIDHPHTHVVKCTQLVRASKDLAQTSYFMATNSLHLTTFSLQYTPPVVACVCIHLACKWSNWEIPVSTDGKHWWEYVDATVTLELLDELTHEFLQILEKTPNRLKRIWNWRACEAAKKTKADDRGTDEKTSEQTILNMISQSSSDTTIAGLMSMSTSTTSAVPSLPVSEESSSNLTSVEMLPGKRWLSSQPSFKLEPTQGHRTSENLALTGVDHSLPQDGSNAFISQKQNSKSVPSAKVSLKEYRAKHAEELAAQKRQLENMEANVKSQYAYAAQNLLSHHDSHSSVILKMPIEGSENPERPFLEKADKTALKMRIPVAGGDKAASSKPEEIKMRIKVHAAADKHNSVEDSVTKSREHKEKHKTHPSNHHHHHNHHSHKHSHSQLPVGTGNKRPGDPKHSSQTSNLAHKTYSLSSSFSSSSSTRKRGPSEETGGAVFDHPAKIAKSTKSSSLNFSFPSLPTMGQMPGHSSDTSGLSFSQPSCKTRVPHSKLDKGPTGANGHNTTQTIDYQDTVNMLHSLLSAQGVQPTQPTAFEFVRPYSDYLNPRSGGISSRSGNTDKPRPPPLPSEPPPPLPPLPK

CDK2/CyclinE1 = CDK2/CyclinE1 (Homo sapiens (Human), UniProt P24941); assay: CDK2/CyclinE1 kinase inhibitory activity (Caliper mobility shift); conditions: read-out: CDK2/Cyclin El IC50

CDK1/CyclinB, sequence (P06493 whole entry): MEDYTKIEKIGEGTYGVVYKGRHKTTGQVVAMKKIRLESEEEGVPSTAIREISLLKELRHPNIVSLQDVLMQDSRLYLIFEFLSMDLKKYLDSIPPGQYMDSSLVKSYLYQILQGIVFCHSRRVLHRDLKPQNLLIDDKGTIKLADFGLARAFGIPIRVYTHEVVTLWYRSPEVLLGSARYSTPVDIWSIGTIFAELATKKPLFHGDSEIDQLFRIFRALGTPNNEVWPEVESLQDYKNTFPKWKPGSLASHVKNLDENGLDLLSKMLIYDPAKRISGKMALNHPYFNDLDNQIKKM
CDK1/CyclinB, sequence (P14635 whole entry partner): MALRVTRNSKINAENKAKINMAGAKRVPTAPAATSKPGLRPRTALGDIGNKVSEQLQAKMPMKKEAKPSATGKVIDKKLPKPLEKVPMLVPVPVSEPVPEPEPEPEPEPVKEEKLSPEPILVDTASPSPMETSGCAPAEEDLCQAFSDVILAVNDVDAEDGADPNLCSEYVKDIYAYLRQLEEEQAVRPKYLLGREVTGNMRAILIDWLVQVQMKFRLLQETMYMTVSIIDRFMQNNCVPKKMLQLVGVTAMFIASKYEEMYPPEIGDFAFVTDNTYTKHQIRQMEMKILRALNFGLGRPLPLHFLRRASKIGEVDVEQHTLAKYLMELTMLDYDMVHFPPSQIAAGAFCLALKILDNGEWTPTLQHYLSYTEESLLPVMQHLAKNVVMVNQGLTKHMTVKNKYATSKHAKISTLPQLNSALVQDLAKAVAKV

Structure (SMILES) | IC50 (CDK1/CyclinB) [µM] | IC50 (CDK9/CyclinT1) [µM] | IC50 (CDK2/CyclinE1) [µM]
NS(=O)(=O)N1CCC(Nc2ncc(C(F)(F)F)c(OC3CCCCCC3O)n2)CC1 (single isomer, unassigned) [Example 122a] | 0.1 to 1 | 0.1 to 1 | < 0.01
CC(C)CS(=O)(=O)N1CCC(Nc2ncc(C#N)c(OC3CCCC3(C)O)n2)CC1 (single isomer, unassigned) [Example 39b] | 0.1 to 1 | ≥ 1 | 0.01 to 0.1
CS(=O)(=O)N1CCC(Nc2ncc(C(F)(F)F)c(OC3CCCCC3O)n2)CC1 (single isomer, unassigned) [Example 120b] | 0.1 to 1 | ≥ 1 | 0.01 to 0.1
CC1(O)CCCC1Oc1nc(Nc2ccc(S(N)(=O)=O)cc2)ncc1C1CC1 (single isomer, unassigned) [Example 154b] | 0.01 to 0.1 | 0.1 to 1 | < 0.01
CC1(O)CCCC1Oc1nc(Nc2ccc(S(N)(=O)=O)cc2)ncc1C#N (single isomer, unassigned) [Example 23b] | 0.1 to 1 | 0.1 to 1 | 0.01 to 0.1
NS(=O)(=O)c1ccc(Nc2ncc(C(F)(F)F)c(O[C@H]3[C@@H]4CC[C@@H](C4)[C@H]3O)n2)cc1 (single isomer, unassigned) [Example 113a] | 0.1 to 1 | 0.1 to 1 | < 0.01
[2H]C([2H])([2H])NS(=O)(=O)c1ccc(Nc2ncc(Br)c(OC3CCCC3O)n2)cc1 (single isomer, unassigned) [Example 143b] | 0.1 to 1 | 0.1 to 1 | < 0.01
N#Cc1cnc(Nc2ccc(S(N)(=O)=O)cc2)nc1OCC1CCCC1O (single isomer, unassigned) [Example 19b] | 0.01 to 0.1 | 0.1 to 1 | < 0.01
[2H]C([2H])([2H])NS(=O)(=O)c1ccc(Nc2ncc(C(F)(F)F)c(OC3CCCC3O)n2)cc1 (single isomer, unassigned) [Example 109b] | 0.1 to 1 | 0.1 to 1 | 0.01 to 0.1
Cn1cc(S(=O)(=O)N2CCC(Nc3ncc(Br)c(OC4CCCCC4O)n3)CC2)cn1 (single isomer, unassigned) [Example 144a] | 0.1 to 1 | ≥ 1 | 0.01 to 0.1
CNS(=O)(=O)c1ccc(Nc2ncc(Cl)c(OC3CCCC3O)n2)cc1 (single isomer, unassigned) [Example 137b] | 0.01 to 0.1 | 0.1 to 1 | < 0.01
NS(=O)(=O)c1ccc(Nc2ncc(C(F)(F)F)c(OC3CCOCC3O)n2)cc1 (single isomer, unassigned) [Example 114b] | 0.1 to 1 | 0.1 to 1 | 0.01 to 0.1
N#Cc1cnc(Nc2ccc(S(=O)(=O)NC3CC(F)C3)cc2)nc1OC1CCCCC1O (single isomer, unassigned) [Example 31b] | 0.1 to 1 | ≥ 1 | 0.01 to 0.1
CC(C)NS(=O)(=O)c1ccc(Nc2ncc(C(F)(F)F)c(OC3CCCC3O)n2)cc1 (single isomer, unassigned) [Example 106b] | 0.01 to 0.1 | 0.1 to 1 | < 0.01
[2H]C([2H])([2H])NS(=O)(=O)c1ccc(Nc2ncc(C)c(OC3CCCC3O)n2)cc1 (single isomer, unassigned) [Example 148b] | 0.1 to 1 | ≥ 1 | 0.01 to 0.1
CC(C)NS(=O)(=O)c1ccc(Nc2ncc(C#N)c(OC3CCC(O)C3)n2)cc1 (single isomer, unassigned) [Example 29a] | 0.1 to 1 | 0.1 to 1 | < 0.01
O=S(=O)(NC1CC1)c1ccc(Nc2ncc(C(F)(F)F)c(OC3CCCC3O)n2)cc1 (single isomer, unassigned) [Example 107b] | 0.01 to 0.1 | 0.1 to 1 | < 0.01
[2H]C([2H])([2H])NS(=O)(=O)c1ccc(Nc2ncc(Cl)c(OC3COCC3(C)O)n2)cc1 (single isomer, unassigned) [Example 140b] | ≥ 1 | ≥ 1 | 0.01 to 0.1
[2H]C([2H])([2H])NS(=O)(=O)c1ccc(Nc2ncc(CC)c(OC3CCCC3O)n2)cc1 (single isomer, unassigned) [Example 149b] | 0.1 to 1 | 0.1 to 1 | 0.01 to 0.1
CNS(=O)(=O)N1CCC(Nc2ncc(C(F)(F)F)c(OC3CCCCCC3O)n2)CC1 (single isomer, unassigned) [Example 123a] | 0.1 to 1 | 0.1 to 1 | 0.01 to 0.1
CS(=O)(=O)N1CCC(Nc2ncc(Br)c(OC3CCCCCC3O)n2)CC1 (single isomer, unassigned) [Example 145a] | 0.1 to 1 | ≥ 1 | 0.01 to 0.1
C=Cc1cnc(Nc2ccc(S(N)(=O)=O)cc2)nc1OC1CCCC1O (single isomer, unassigned) [Example 155b] | 0.1 to 1 | 0.1 to 1 | < 0.01

Structure (SMILES) | IC50 (CDK1/CyclinB) [µM] | IC50 (CDK9/CyclinT1) [µM] | IC50 (CDK2/CyclinE1) [µM]
NS(=O)(=O)c1ccc(Nc2ncc(C(F)(F)F)c(OC3CCCCCC3O)n2)cc1 (single isomer, unassigned) [Example 118b] | 0.01 to 0.1 | 0.01 to 0.1 | < 0.01
N#Cc1cnc(Nc2ccc(S(N)(=O)=O)cc2)nc1OCC1CCCC1O (single isomer, unassigned) [Example 19a] | 0.01 to 0.1 | 0.1 to 1 | < 0.01
C[C@@H]1C[C@H](O)CCN1c1nc(Nc2ccc(S(N)(=O)=O)cc2)ncc1C#N [Example 75] | 0.01 to 0.1 | 0.01 to 0.1 | < 0.01
CNS(=O)(=O)c1ccc(Nc2ncc(C#N)c(OC3CCCC3(C)O)n2)cc1 (single isomer, unassigned) [Example 34b] | 0.1 to 1 | ≥ 1 | < 0.01
[2H]C([2H])([2H])NS(=O)(=O)c1ccc(Nc2ncc(CC)c(OC3COCCC3(C)O)n2)cc1 (single isomer, unassigned) [Example 153b] | ≥ 1 | ≥ 1 | 0.01 to 0.1
C[C@@H]1CC[C@H](O)CN1c1nc(Nc2ccc(S(N)(=O)=O)cc2)ncc1C#N [Example 77] | 0.01 to 0.1 | 0.01 to 0.1 | < 0.01
N#Cc1cnc(Nc2ccc(S(N)(=O)=O)cc2)nc1OC1CCCC1CO (single isomer, unassigned) [Example 18b] | 0.01 to 0.1 | 0.1 to 1 | < 0.01
N#Cc1cnc(Nc2ccc(S(N)(=O)=O)cc2)nc1N1CCC[C@H](CO)C1 [Example 78] | 0.01 to 0.1 | 0.1 to 1 | < 0.01
CCS(=O)(=O)N1CCC(Nc2ncc(C#N)c(OC3CCCC3(C)O)n2)CC1 (single isomer, unassigned) [Example 36a] | 0.1 to 1 | ≥ 1 | 0.01 to 0.1
CC(C)NS(=O)(=O)c1ccc(Nc2ncc(C#N)c(OC3CCCCC3O)n2)cc1 (single isomer, unassigned) [Example 30b] | 0.1 to 1 | ≥ 1 | 0.01 to 0.1
CS(=O)(=O)N1CCC(Nc2ncc(C(F)(F)F)c(OC3CCCCCC3O)n2)CC1 (single isomer, unassigned) [Example 121b] | 0.1 to 1 | 0.1 to 1 | 0.01 to 0.1
Cc1cnc(Nc2ccc(S(N)(=O)=O)cc2)nc1O[C@@H]1CCC[C@@H]1O (single isomer, unassigned) [Example 132b, cis-4-((4-((2-hydroxycyclopentyl)oxy)-5-methylpyrimidin-2-yl)amino)benzenesulfonamide] | 0.1 to 1 | 0.1 to 1 | 0.01 to 0.1
C[C@]1(O)CCC[C@H]1Oc1nc(NC2CCN(S(C)(=O)=O)CC2)ncc1C#N (relative stereo) [Example 3a, cis-4-((2-hydroxy-2-methylcyclopentyl)oxy)-2-((1-(methylsulfonyl)piperidin-4-yl)amino)pyrimidine-5-carbonitrile] | 0.1 to 1 | ≥ 1 | 0.01 to 0.1
CC1CCCC1Oc1nc(Nc2ccc(S(N)(=O)=O)cc2)ncc1C#N (stereo not drawn) [Example 11] | < 0.01 | 0.01 to 0.1 | < 0.01
[2H]C1([2H])CC(O)C(Oc2nc(Nc3ccc(S(=O)(=O)NC([2H])([2H])[2H])cc3)ncc2C(F)(F)F)C1 (single isomer, unassigned) [Example 110b] | 0.1 to 1 | 0.1 to 1 | < 0.01
CC1(NS(=O)(=O)c2ccc(Nc3ncc(Br)c(O[C@@H]4CCC[C@@H]4O)n3)cc2)COC1 (single isomer, unassigned) [Example 131b, cis-4-((5-bromo-4-((2-hydroxycyclopentyl)oxy)pyrimidin-2-yl)amino)-N-(3-methyloxetan-3-yl)benzenesulfonamide] | 0.1 to 1 | 0.1 to 1 | < 0.01
CC(C)NS(=O)(=O)c1ccc(Nc2ncc(C#N)c(OC3CCC(O)C3)n2)cc1 (single isomer, unassigned) [Example 29b] | 0.01 to 0.1 | 0.1 to 1 | < 0.01
NS(=O)(=O)c1ccc(Nc2ncc(C(F)(F)F)c(O[C@@H]3CCC[C@@H]3O)n2)cc1 (single isomer, unassigned) [Example 99b, cis-4-((4-((2-hydroxycyclopentyl)oxy)-5-(trifluoromethyl)pyrimidin-2-yl)amino)benzenesulfonamide] | 0.01 to 0.1 | 0.1 to 1 | < 0.01
[2H]C([2H])([2H])NS(=O)(=O)c1ccc(Nc2ncc(C(F)(F)F)c(OC3COCCC3O)n2)cc1 (single isomer, unassigned) [Example 117b] | 0.1 to 1 | ≥ 1 | 0.01 to 0.1
[2H]C([2H])([2H])NS(=O)(=O)c1ccc(Nc2ncc(CC)c(OC3CCOCC3(C)O)n2)cc1 (single isomer, unassigned) [Example 152a] | < 0.01 | 0.01 to 0.1 | < 0.01
N#Cc1cnc(Nc2ccc(S(N)(=O)=O)cc2)nc1O[C@@H]1CCCC[C@@H]1O (single isomer, unassigned) [Example 2b, cis-4-((5-cyano-4-((2-hydroxycyclohexyl)oxy)pyrimidin-2-yl)amino)benzenesulfonamide] | 0.1 to 1 | ≥ 1 | 0.01 to 0.1
